Drawing on US9168259B2 (GRÜNENTHAL GMBH, priority 2010, dated 2015), this text covers Emax and EC50 for 21 compounds.

The target in this test is T1, KCNQ2/3 channels (Homo sapiens, UniProt O43525+O43526).
T1 construct: expressed in transfected cells
In words: Fluorescence assay using a voltage sensitive dye (fluorimetry). The following applies: CHO-K1 cells expressing KCNQ2/3; for Emax: CHO-K1, plateau effect relative to saturated retigabine (50 μM) = 100%, negative values = antagonistic, read-out: Fluorimetry % efficacy (retigabine = 100%); for EC50: IC50 where % efficacy is negative, read-out: Fluorimetry EC50/IC50. The class given is cell-based.

T1 sequence (O43526 whole entry): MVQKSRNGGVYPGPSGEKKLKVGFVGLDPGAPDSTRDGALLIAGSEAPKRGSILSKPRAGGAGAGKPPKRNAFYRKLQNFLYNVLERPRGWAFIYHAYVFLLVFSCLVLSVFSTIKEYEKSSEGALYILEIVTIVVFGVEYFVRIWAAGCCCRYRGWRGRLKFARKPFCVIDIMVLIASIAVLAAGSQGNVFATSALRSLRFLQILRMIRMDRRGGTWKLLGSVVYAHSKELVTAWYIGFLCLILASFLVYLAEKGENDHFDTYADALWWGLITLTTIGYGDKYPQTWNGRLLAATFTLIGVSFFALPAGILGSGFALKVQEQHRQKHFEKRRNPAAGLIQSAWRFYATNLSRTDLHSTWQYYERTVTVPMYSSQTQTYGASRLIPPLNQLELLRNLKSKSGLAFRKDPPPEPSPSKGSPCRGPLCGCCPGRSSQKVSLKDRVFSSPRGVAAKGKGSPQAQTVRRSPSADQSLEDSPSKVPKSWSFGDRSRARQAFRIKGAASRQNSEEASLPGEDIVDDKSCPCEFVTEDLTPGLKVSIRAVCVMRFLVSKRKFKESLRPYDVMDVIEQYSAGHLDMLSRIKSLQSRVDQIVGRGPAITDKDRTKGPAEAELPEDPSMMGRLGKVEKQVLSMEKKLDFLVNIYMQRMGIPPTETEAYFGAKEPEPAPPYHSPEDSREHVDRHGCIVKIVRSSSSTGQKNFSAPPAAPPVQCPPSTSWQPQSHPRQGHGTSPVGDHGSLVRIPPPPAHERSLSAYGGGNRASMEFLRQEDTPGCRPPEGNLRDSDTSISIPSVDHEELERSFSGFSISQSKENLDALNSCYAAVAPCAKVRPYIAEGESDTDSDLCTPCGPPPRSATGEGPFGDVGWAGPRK
T1 sequence (O43525 whole entry): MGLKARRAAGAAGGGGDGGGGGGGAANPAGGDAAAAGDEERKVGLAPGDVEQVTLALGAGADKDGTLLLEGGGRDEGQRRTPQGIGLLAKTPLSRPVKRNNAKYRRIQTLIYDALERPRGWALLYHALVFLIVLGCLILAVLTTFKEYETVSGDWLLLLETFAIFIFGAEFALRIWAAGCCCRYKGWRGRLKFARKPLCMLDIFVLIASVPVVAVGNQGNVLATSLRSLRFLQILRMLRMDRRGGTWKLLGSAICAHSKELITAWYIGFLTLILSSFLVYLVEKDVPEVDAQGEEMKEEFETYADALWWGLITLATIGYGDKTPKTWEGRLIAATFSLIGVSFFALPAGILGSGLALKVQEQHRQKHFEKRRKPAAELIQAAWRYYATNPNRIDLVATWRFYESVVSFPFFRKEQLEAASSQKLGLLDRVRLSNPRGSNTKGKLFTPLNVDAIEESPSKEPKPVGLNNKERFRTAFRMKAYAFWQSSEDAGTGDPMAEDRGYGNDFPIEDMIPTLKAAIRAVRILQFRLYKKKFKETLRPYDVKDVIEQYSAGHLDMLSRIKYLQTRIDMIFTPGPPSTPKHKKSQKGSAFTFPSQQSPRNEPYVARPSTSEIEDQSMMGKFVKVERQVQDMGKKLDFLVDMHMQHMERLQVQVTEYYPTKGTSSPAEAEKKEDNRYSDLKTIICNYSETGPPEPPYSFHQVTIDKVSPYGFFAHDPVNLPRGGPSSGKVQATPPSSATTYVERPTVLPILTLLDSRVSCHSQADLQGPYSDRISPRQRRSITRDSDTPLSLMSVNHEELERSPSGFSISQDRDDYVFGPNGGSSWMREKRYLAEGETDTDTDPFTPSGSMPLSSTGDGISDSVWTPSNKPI

Take `CCSc1nc(N(C)C2CCCOC2)cc(C)c1C(=O)NCc1cccc(F)c1` (stereo not drawn) [Example 261, 2-Ethylsulfanyl-N-[(3-fluorophenyl)-methyl]-4-methyl-6-(methyl-tetrahydro-pyran-3-yl-amino)-pyridine-3-carboxylic acid amide]: the Emax stood at 96% and the EC50 amounted to 786 nM.
On to `CCSc1nc(N2C(C)COCC2C)cc(C)c1C(=O)NCc1cccc(F)c1` (stereo not drawn) [Example 262, 6-(3,5-Dimethyl-morpholin-4-yl)-2-ethylsulfanyl-N-[(3-fluorophenyl)-methyl]-4-methyl-pyridine-3-carboxylic acid amide], for which the Emax was 182% and the EC50 was 374 nM.
The matching figures for `CCSc1nc(N2CCOC[C@@H]2CO)cc(C)c1C(=O)NCc1cccc(F)c1` [Example 263, 2-Ethylsulfanyl-N-[(3-fluorophenyl)-methyl]-6-[(3S)-3-(hydroxymethyl)-morpholin-4-yl]-4-methyl-pyridine-3-carboxylic acid amide]: 114% and 4140 nM.
The like results for `CCSc1nc(N2CCOC[C@H]2CO)cc(C)c1C(=O)NCc1cccc(F)c1` [Example 264, 2-Ethylsulfanyl-N-[(3-fluorophenyl)-methyl]-6-[(3R)-3-(hydroxymethyl)-morpholin-4-yl]-4-methyl-pyridine-3-carboxylic acid amide] were, in that order, 184% and 1560 nM.
The matching figures for `Cc1cc(N2CCOC[C@H]2C)nc(C(C)C)c1C(=O)NCc1ccc(Cl)cc1` [Example 265, N-[(4-Chlorophenyl)-methyl]-2-isopropyl-4-methyl-6-[(3R)-3-methyl-morpholin-4-yl]-pyridine-3-carboxylic acid amide]: 206% and 28 nM.
In the case of `CCCc1nc(N2CCOC[C@H]2C)cc(C)c1C(=O)NCc1ccc(Cl)cc1` [Example 266, N-[(4-Chlorophenyl)-methyl]-4-methyl-6-[(3R)-3-methyl-morpholin-4-yl]-2-propyl-pyridine-3-carboxylic acid amide], the Emax was determined as 210% and the EC50 stood at 57 nM.
The like results for `CCSc1nc(N2CCOCC2)cc(C)c1C(=O)NCCC(O)C(C)(C)C` (stereo not drawn) [Example 267, 2-Ethylsulfanyl-N-(3-hydroxy-4,4-dimethyl-pentyl)-4-methyl-6-morpholin-4-yl-pyridine-3-carboxylic acid amide] were, in that order, 223% and 247 nM.
The like results for `CCSc1nc(N2CCOCC2)cc(C)c1C(=O)NCc1ccc(C#N)c(F)c1` [Example 268, N-[(4-Cyano-3-fluoro-phenyl)-methyl]-2-ethylsulfanyl-4-methyl-6-morpholin-4-yl-pyridine-3-carboxylic acid amide] were, in that order, 142% and 286 nM.
The matching figures for `Cc1cc(N2CCOCC2)nc(OCCF)c1C(=O)NCc1ccc(Cl)cc1` [Example 269, N-[(4-Chlorophenyl)-methyl]-2-(2-fluoro-ethoxy)-4-methyl-6-morpholin-4-yl-pyridine-3-carboxylic acid amide]: 119% and 147 nM.
With `Cc1cc(N2CCOCC2)nc(OCC(F)F)c1C(=O)NCc1ccc(Cl)cc1` [Example 270, N-[(4-Chlorophenyl)-methyl]-2-(2,2-difluoro-ethoxy)-4-methyl-6-morpholin-4-yl-pyridine-3-carboxylic acid amide], the Emax worked out at 97% and the EC50 was determined as 24 nM.
The like results for `Cc1cc(N2CCOCC2)nc(OCC2CC2)c1C(=O)NCc1ccc(Cl)cc1` [Example 271, N-[(4-Chlorophenyl)-methyl]-2-(cyclopropyl-methoxy)-4-methyl-6-morpholin-4-yl-pyridine-3-carboxylic acid amide] were, in that order, 128% and 93 nM.
The like results for `Cc1cc(N2CCOCC2)nc(OCC(F)F)c1C(=O)NCc1ccc(F)cc1` [Example 272, 2-(2,2-Difluoro-ethoxy)-N-[(4-fluorophenyl)-methyl]-4-methyl-6-morpholin-4-yl-pyridine-3-carboxylic acid amide] were, in that order, 96% and 78 nM.
For `CCOc1nc(N2CCOC[C@H]2C)cc(C)c1C(=O)NCc1ccc(Cl)cc1` [Example 273, N-[(4-Chlorophenyl)-methyl]-2-ethoxy-4-methyl-6-[(3R)-3-methyl-morpholin-4-yl]-pyridine-3-carboxylic acid amide], the Emax came to 163% and the EC50 came out at 137 nM.
The like results for `CCSc1nc(N2CCO[C@@H](C)C2)cc(C)c1C(=O)NCCCC(C)(C)C` [Example 274, N-(4,4-Dimethyl-pentyl)-2-ethylsulfanyl-4-methyl-6-[(2S)-2-methyl-morpholin-4-yl]-pyridine-3-carboxylic acid amide] were, in that order, 217% and 234 nM.
The like results for `CCSc1nc(N2CCO[C@H](C)C2)cc(C)c1C(=O)NCCCC(C)(C)C` [Example 275, N-(4,4-Dimethyl-pentyl)-2-ethylsulfanyl-4-methyl-6-[(2R)-2-methyl-morpholin-4-yl]-pyridine-3-carboxylic acid amide] were, in that order, 208% and 63 nM.
With `Cc1cc(N2CCOCC2)nc(OCC2CC2)c1C(=O)NCc1ccc(F)cc1` [Example 276, 2-(Cyclopropyl-methoxy)-N-[(4-fluorophenyl)-methyl]-4-methyl-6-morpholin-4-yl-pyridine-3-carboxylic acid amide], the Emax amounted to 102% and the EC50 worked out at 143 nM.
Consider `COC[C@H]1COCCN1c1cc(C)c(C(=O)NCc2ccc(Cl)cc2)c(C(C)C)n1` [Example 277, N-[(4-Chlorophenyl)-methyl]-2-isopropyl-6-[(3S)-3-(methoxymethyl)-morpholin-4-yl]-4-methyl-pyridine-3-carboxylic acid amide], for which the Emax is 129% and the EC50 came out at 17 nM.
The matching figures for `CCC(C)Cc1nc(N2CCOCC2)cc(C)c1C(=O)NCCCC(C)(C)C` (stereo not drawn) [Example 278, N-(4,4-Dimethyl-pentyl)-4-methyl-2-(2-methyl-butyl)-6-morpholin-4-yl-pyridine-3-carboxylic acid amide]: 225% and 36 nM.
The like results for `CCC(C)(C)c1nc(N2CCOCC2)cc(C)c1C(=O)NCCCC(C)(C)C` [Example 279, N-(4,4-Dimethyl-pentyl)-2-(1,1-dimethyl-propyl)-4-methyl-6-morpholin-4-yl-pyridine-3-carboxylic acid amide] were, in that order, 172% and 430 nM.
Take `CCSc1nc(N(C)C2CCCOC2)cc(C)c1C(=O)NCCCC(C)(C)C` (stereo not drawn) [Example 280, N-(4,4-Dimethyl-pentyl)-2-ethylsulfanyl-4-methyl-6-(methyl-tetrahydro-pyran-3-yl-amino)-pyridine-3-carboxylic acid amide]: the Emax is 165% and the EC50 is 302 nM.
The like results for `CCSc1nc(N2CCOCC2)cc(C)c1C(=O)NCc1ccc([N+](=O)[O-])cc1` [Example 281, 2-Ethylsulfanyl-4-methyl-6-morpholin-4-yl-N-[(4-nitrophenyl)-methyl]-pyridine-3-carboxylic acid amide] were, in that order, 109% and 311 nM.
